Laboratory results reported in patent US20160264593A1 (priority 2013, published 2016).
“And” between values parts separate entries of the source, which are not always exact repeats. Equal entries are not always repeated.

Columns and labels:
PP2A [1] = assay: PP2A activity in mouse brains after IP dosing (PP2A immunoprecipitation phosphatase assay, malachite green); assay type: in vivo, Balb/c mice; parameters: Average Conc. (group of 3 mice): unit not given here; conditions: brain
Method: (§1) Coomassie (Bradford) Protein Assay Kit (Pierce); PP2A Immunoprecipitation Phosphatase Assay Kit (Millipore); Lysate preparation for low endogenous phosphate: 20 mM imidazole-HCl, 2 mM EDTA, 2 mM EGTA, 1 mM PMSF, 1 mM benzamidine, 10 ug/ml each of aprotinin, leupeptin, antipain, soybean trypsin inhibitor; Normal Mouse IgG (Millipore); Okadaic acid (OA) (Tocris); DMSO (Sigma).
(§2) • Species: Mus Musculus • Strain: Balb/c mice • Age: 6-8 weeks • Sex: female • Body weight: 18-22 g • Vendor: Shanghai Laboratory Animal Center, Shanghai, China; • Number of animals: 66 Balb/c mice plus spare
(§3) The mice were kept in laminar flow rooms at constant temperature and humidity with 4 animals in each cage. • Temperature: 20-25 • Humidity: 40-70%. • Light cycle: 12 hours light and 12 hours dark. • Cages: Made of polycarbonate. The size is 29 cm×17.5 cm×12 cm (L×w×H). The bedding material is wood debris, which is changed once per week. • Diet: Animals had free access to irradiation sterilized dry granule food during the entire study period. • Water: Animals had free access to sterile drinking water. • Cage identification: the identification labels for each cage contained the following information: number of animals, sex, strain, date arrival, treatment, study number, group number, and the starting date of the treatment. • Animal identification: Animals were marked by ear punch.
(§4) All the procedures related to animal handling, care, and the treatment in this study were performed according to guidelines approved by the Institutional Animal Care and Use Committee (IACUC) of WuXi AppTec (Shanghai), following the guidance of the Association for Assessment and Accreditation of Laboratory Animal Care (AAALAC). At the time of routine monitoring, the animals were checked and recorded for any effects of tumor growth on normal behavior such as mobility, food and water consumption (by looking only), body weight gain/loss, eye/hair matting and any other abnormal effect.
(§5) 1. Proper amount of the compounds were weighed. 2. The compounds were dissolved in 4% sterile sodium bicarbonate. 3. All of the compounds should be well dissolved and clear. 4. The compounds should be kept cold once in solution and injected within an hour. 5. The mice were administered intraperitoneally according to their body weights, 20 g mouse was treated with 0.2 ml compound solution. 6. Mice were treated with vehicle and compounds according to Table 1. 7. 3 hours after the dose, 3 mice from each group were euthanized by
(§6) CO2 exposure, and the brains and left lobe of livers were taken and snap-frozen in liquid nitrogen immediately. 6 hours after the dose, the other 3 mice from each group were euthanized by CO2 exposure, and the brains and left lobe of livers were taken and snap-frozen in liquid nitrogen immediately.
(§7) Preparation of malachite green phosphate detection solution Added […] of Solution B to each 1 mL of Solution A, kept at room temperature during use. […] of mixed solution AB is used per assay well.
(§8) Diluted 125 mL Phosphate Standard (Solution C) with 1125 mL of distilled water to make 0.1 mM working solution. The solution was used to prepare a phosphate standard curve as described in the table below.
(§9) 1. 25 μL of each phosphate standards was transferred to wells of microliter plate. 2. Added 100 μL of Malachite Green Solution AB. Mixed carefully without creating bubbles. 3. Cultured for 15 minutes at RT. 4. Measured absorbance at a wavelength between 650 nm in a microliter plate reader.
(§10) 1. Dissolved 1 mg Threonine Phosphopeptide (Catalog #12-219) in 1.10 mL of distilled water to prepare a 1 mM solution. 2. Aliquot peptide solution and stored at ˜20° C. as necessary.
(§11) 1. Mouse brain or liver was homogenized using lysis buffer (25 g/L), centrifuged at 12000 g for 10 minutes at […], and the supernatants were collected. 2. The protein was quantitated, and 240 μg of mouse brain or liver lysate was taken to assay phosphatase activity. 3. […]

PP2A [2] = assay: PP2A activity in mouse livers after IP dosing (PP2A immunoprecipitation phosphatase assay, malachite green); assay type: in vivo, Balb/c mice; conditions: liver
Method: as §1, §2, §3, §4, §5, §6, §7, §8, §9, §10, §11

[3] = high dose IP (mpk: 100 1.5, 113 2.2, 151 1.6, 153 1.7, 157 2.0), 3 h
[4] = high dose IP (mpk: 100 1.5, 113 2.2, 151 1.6, 153 1.7, 157 2.0), 6 h
[5] = low dose IP (mpk: 100 0.75, 113 1.1, 151 0.8, 153 0.85, 157 1.0), 3 h
[6] = low dose IP (mpk: 100 0.75, 113 1.1, 151 0.8, 153 0.85, 157 1.0), 6 h
[7] = high dose IP (mpk: 100 1.5, 113 2.2, 151 1.6, 157 2.0), 3 h
[8] = high dose IP (mpk: 100 1.5, 113 2.2, 151 1.6, 157 2.0), 6 h

COC(=O)C1C2CCC(O2)C1C(=O)N1CCN(C)CC1 (centres unmarked) [Compound 151]
Average Conc. (group of 3 mice) (PP2A [1]; [3]): 2166.08 | Average Relative Activity (group, vehicle = 100) (PP2A [1]; [3]): 87.89 | Conc. (phosphate, single reading, per mouse) (PP2A [1]; [3]): 3168.39 and 2285.85 and 2334.84 and 1781.17 and 1662.47 and 1991.94 | Mean Conc. (per mouse) (PP2A [1]; [3]): 2310.34 and 1721.82 and 2580.16 | Mean Conc. less IgG blank (per mouse) (PP2A [1]; [3]): 2272.32 and 1683.79 and 2542.14 | Relative Conc. (per mouse, to vehicle) (PP2A [1]; [3]): 1.05 and 0.78 and 1.17 | Relative PP2A Activity (per mouse, vehicle = 100) (PP2A [1]; [3]): 92.20 and 68.32 and 103.14 | Average Conc. (group of 3 mice) (PP2A [1]; [4]): 2082.71 | Average Relative Activity (group, vehicle = 100) (PP2A [1]; [4]): 74.99 | Conc. (phosphate, single reading, per mouse) (PP2A [1]; [4]): 1999.47 and 1945.40 and 1958.41 and 2142.56 and 2296.42 and 2382.19 | Mean Conc. (per mouse) (PP2A [1]; [4]): 1972.43 and 2050.48 and 2339.31 | Mean Conc. less IgG blank (per mouse) (PP2A [1]; [4]): 1934.40 and 2012.45 and 2301.28 | Relative Conc. (per mouse, to vehicle) (PP2A [1]; [4]): 0.79 and 0.82 and 0.94 | Relative PP2A Activity (per mouse, vehicle = 100) (PP2A [1]; [4]): 69.65 and 72.46 and 82.86 | Average Conc. (group of 3 mice) (PP2A [1]; [5]): 1599.57 | Average Relative Activity (group, vehicle = 100) (PP2A [1]; [5]): 64.90 | Conc. (phosphate, single reading, per mouse) (PP2A [1]; [5]): 1332.79 and 1495.39 and 2603.34 and 1925.68 and 1273.84 and 1194.57 | Mean Conc. (per mouse) (PP2A [1]; [5]): 1414.09 and 2264.51 and 1234.21 | Mean Conc. less IgG blank (per mouse) (PP2A [1]; [5]): 1376.06 and 2226.48 and 1196.18 | Relative Conc. (per mouse, to vehicle) (PP2A [1]; [5]): 0.63 and 1.03 and 0.55 | Relative PP2A Activity (per mouse, vehicle = 100) (PP2A [1]; [5]): 55.83 and 90.34 and 48.53 | Average Conc. (group of 3 mice) (PP2A [1]; [6]): 1662.31 | Average Relative Activity (group, vehicle = 100) (PP2A [1]; [6]): 59.85 | Conc. (phosphate, single reading, per mouse) (PP2A [1]; [6]): 1514.30 and 1280.55 and 1980.77 and 1880.56 and 1846.62 and 1699.26 | Mean Conc. (per mouse) (PP2A [1]; [6]): 1397.42 and 1930.66 and 1772.94 | Mean Conc. less IgG blank (per mouse) (PP2A [1]; [6]): 1359.40 and 1892.63 and 1734.91 | Relative Conc. (per mouse, to vehicle) (PP2A [1]; [6]): 0.56 and 0.77 and 0.71 | Relative PP2A Activity (per mouse, vehicle = 100) (PP2A [1]; [6]): 48.95 and 68.15 and 62.47 | Average Conc. (group of 3 mice) (PP2A [2]; [7]): 472.47 | Average Relative Activity (group, vehicle = 100) (PP2A [2]; [7]): 112.5 | Conc. (phosphate, single reading, per mouse) (PP2A [2]; [7]): 387.96 and 418.01 and 367.5 and 404.51 and 757.23 and 772.47 | Mean Conc. (per mouse) (PP2A [2]; [7]): 402.99 and 386.01 and 764.85 | Mean Conc. less IgG blank (per mouse) (PP2A [2]; [7]): 357.51 and 340.53 and 719.38 | Relative Conc. (per mouse, to vehicle) (PP2A [2]; [7]): 0.85 and 0.81 and 1.71 | Relative PP2A Activity (per mouse, vehicle = 100) (PP2A [2]; [7]): 85.13 and 81.08 and 171.29 | Average Conc. (group of 3 mice) (PP2A [2]; [8]): 241.1 | Average Relative Activity (group, vehicle = 100) (PP2A [2]; [8]): 54.24 | Conc. (phosphate, single reading, per mouse) (PP2A [2]; [8]): 320.03 and 325.26 and 287.37 and 311.32 and 231.2 and 244.26 | Mean Conc. (per mouse) (PP2A [2]; [8]): 322.65 and 299.35 and 237.73 | Mean Conc. less IgG blank (per mouse) (PP2A [2]; [8]): 277.17 and 253.87 and 192.25 | Relative Conc. (per mouse, to vehicle) (PP2A [2]; [8]): 0.62 and 0.57 and 0.43 | Relative PP2A Activity (per mouse, vehicle = 100) (PP2A [2]; [8]): 62.36 and 57.11 and 43.25 | Average Conc. (group of 3 mice) (PP2A [2]; [5]): 423.92 | Average Relative Activity (group, vehicle = 100) (PP2A [2]; [5]): 100.94 | Conc. (phosphate, single reading, per mouse) (PP2A [2]; [5]): 430.64 and 449.36 and 437.61 and 446.75 and 521.21 and 530.8 | Mean Conc. (per mouse) (PP2A [2]; [5]): 440 and 442.18 and 526 | Mean Conc. less IgG blank (per mouse) (PP2A [2]; [5]): 394.52 and 396.7 and 480.53 | Relative Conc. (per mouse, to vehicle) (PP2A [2]; [5]): 0.94 (2×) and 1.14 | Relative PP2A Activity (per mouse, vehicle = 100) (PP2A [2]; [5]): 93.94 and 94.46 and 114.42 | Average Conc. (group of 3 mice) (PP2A [2]; [6]): 307.58 | Average Relative Activity (group, vehicle = 100) (PP2A [2]; [6]): 69.2 | Conc. (phosphate, single reading, per mouse) (PP2A [2]; [6]): 260.81 and 279.97 and 333.1 and 357.92 and 428.03 and 458.51 | Mean Conc. (per mouse) (PP2A [2]; [6]): 270.39 and 345.51 and 443.27 | Mean Conc. less IgG blank (per mouse) (PP2A [2]; [6]): 224.91 and 300.03 and 397.79 | Relative Conc. (per mouse, to vehicle) (PP2A [2]; [6]): 0.51 and 0.67 and 0.89 | Relative PP2A Activity (per mouse, vehicle = 100) (PP2A [2]; [6]): 50.6 and 67.5 and 89.49
